Assay results from patent US20110039693A1, “Pyrimidylmethyl Sulfonamide Compounds” (BASF SE, priority 2008, published 2011).
Read-outs that look alike come from different tables or passages of the source.

Key:
Alternaria solani = experiment: Synergistic mixture microtiter test: Alternaria solani; assay type: cell-based; details: single compound
Pyrenophora teres = experiment: Synergistic mixture microtiter test: Pyrenophora teres; assay type: cell-based; details: single compound
Phytophthora infestans = assay type: cell-based; details: single compound
Puccinia recondita = experiment: Synergistic mixture glasshouse trial: preventative control of brown rust caused by Puccinia recondita; assay type: in vivo; details: single compound, wheat, untreated control 80% diseased leaf area
Experimental: The spray solutions were prepared in several steps: The stock solution were prepared: a mixture of acetone and/or dimethylsulfoxide and the wetting agent/emulsifier Wettol, which is based on ethoxylated alkylphenoles, in a relation (volume) solvent-emulsifier of 99 to 1 was added to 25 mg of the compound to give a total of 10 ml. Water was then added to total volume of 100 ml. This stock solution was diluted with the described solvent-emulsifier-water mixture to the given concentration.
The first two developed leaves of pot-grown wheat seedling were sprayed to run-off with an aqueous suspension, containing the concentration of active ingredient or their mixture as described below. The next day the plants were inoculated with spores of Puccinia recondita. To ensure the success the artificial inoculation, the plants were transferred to a humid chamber without light and a relative humidity of 95 to 99% and 20 to 22° C. for 24 h. Then the trial plants were cultivated for 6 days in a greenhouse chamber at 22-26° C. and a relative humidity between 65 and 70%. The extent of fungal attack on the leaves was visually assessed as % diseased leaf area.
The percentages diseased leaf area were converted into efficacies. An efficacy of 0 means that the infection level of the treated plants corresponds to that of the untreated control plants; an efficacy of 100 means that the treated plants were not infected.
The expected efficacies of active compound mixtures were determined using Colby's formula as described earlier herein.

Septoria tritici = experiment: Synergistic mixture microtiter test: leaf blotch on wheat caused by Septoria tritici; assay type: cell-based; details: single compound

## COc1cc(CNS(=O)(=O)c2ccc(Oc3ccc(C(F)(F)F)cn3)cc2)nc(OC)n1 [Example I-88]
Alternaria solani; 0.25 ppm
  Observed efficacy (%): 4%
Pyrenophora teres; 0.25 ppm
  Observed efficacy (%): 16%

## COc1nccc(CNS(=O)(=O)c2ccc(Oc3ncc(C(F)(F)F)cc3Cl)c(C)c2)n1 [Example I-17, 4-(3-chloro-5-trifluoromethyl-pyridin-2-yloxy)-N-(2-methoxy-pyrimidin-4-ylmethyl)-3-methyl-benzenesulfonamide]
other
  melting point: 138 °C

## COC(=O)N(OC)c1ccccc1COc1ccn(-c2ccc(Cl)cc2)n1 [Pyraclostrobin, pyraclostrobin, reference compound]
Phytophthora infestans; 0.25 ppm
  Observed efficacy (%): 38%
Puccinia recondita; 0.25 ppm
  Observed efficacy (%): 0%
Septoria tritici; 0.063 ppm
  Observed efficacy (%): 74%
Alternaria solani; 0.063 ppm
  Observed efficacy (%): 48%
Pyrenophora teres; 0.004 ppm
  Observed efficacy (%): 0%

## CCOc1nccc(CNS(=O)(=O)c2ccc(Oc3ncccc3C(F)(F)F)cc2)n1 [Example I-52]
Phytophthora infestans; 16 ppm
  Observed efficacy (%): 53%
Puccinia recondita; 16 ppm
  Observed efficacy (%): 29%
Septoria tritici; 4 ppm
  Observed efficacy (%): 29%
Alternaria solani; 0.25 ppm
  Observed efficacy (%): 0%
Alternaria solani; 4 ppm
  Observed efficacy (%): 0%

## O=S(=O)(NCc1ccnc(C2CC2)n1)c1ccc(Oc2ncccc2C(F)(F)F)cc1 [Example I-27]
Puccinia recondita; 16 ppm
  Observed efficacy (%): 27%
Septoria tritici; 4 ppm
  Observed efficacy (%): 27%
Alternaria solani; 0.25 ppm
  Observed efficacy (%): 3%
Alternaria solani; 4 ppm
  Observed efficacy (%): 0%
Pyrenophora teres; 4 ppm
  Observed efficacy (%): 26%

## COc1cc(CNS(=O)(=O)c2ccc(Oc3ncc(C(F)(F)F)cc3Cl)cc2)nc(OC)n1 [Example I-118]
Septoria tritici; 4 ppm
  Observed efficacy (%): 25%
Alternaria solani; 0.25 ppm
  Observed efficacy (%): 1%

## CSc1ncc(F)c(CNS(=O)(=O)c2ccc(Oc3ccc(C(F)(F)F)cn3)cc2)n1 [Example I-72]
Puccinia recondita; 4 ppm
  Observed efficacy (%): 0%
Puccinia recondita; 16 ppm
  Observed efficacy (%): 0%
Septoria tritici; 4 ppm
  Observed efficacy (%): 14%
Alternaria solani; 0.25 ppm
  Observed efficacy (%): 3%
Pyrenophora teres; 4 ppm
  Observed efficacy (%): 14%

## Fc1ccc([C@]2(Cn3cncn3)O[C@H]2c2ccccc2Cl)cc1 (racemic) [Epoxiconazole, epoxiconazole, reference compound]
Puccinia recondita; 0.25 ppm
  Observed efficacy (%): 0%
Pyrenophora teres; 0.25 ppm
  Observed efficacy (%): 8%

## COc1nccc(CNS(=O)(=O)c2ccc(Oc3ccc(C(F)(F)F)cn3)cc2C)n1 [Example I-22]
Alternaria solani; 0.25 ppm
  Observed efficacy (%): 3%
Pyrenophora teres; 0.016 ppm
  Observed efficacy (%): 1%

## O=C(Nc1ccccc1-c1ccc(Cl)cc1)c1cccnc1Cl [Boscalid, boscalid, reference compound]
Puccinia recondita; 4 ppm
  Observed efficacy (%): 0%
Puccinia recondita; 16 ppm
  Observed efficacy (%): 0%
Septoria tritici; 4 ppm
  Observed efficacy (%): 75%
Pyrenophora teres; 0.016 ppm
  Observed efficacy (%): 0%
Pyrenophora teres; 0.25 ppm
  Observed efficacy (%): 63%

## CSc1nccc(CNS(=O)(=O)c2ccc(Oc3ncc(C(F)(F)F)cc3Cl)cc2)n1 [Example I-5]
Septoria tritici; 4 ppm
  Observed efficacy (%): 22%
Alternaria solani; 0.25 ppm
  Observed efficacy (%): 2%
Pyrenophora teres; 0.25 ppm
  Observed efficacy (%): 0%
Pyrenophora teres; 4 ppm
  Observed efficacy (%): 21%

## COc1nccc(CNS(=O)(=O)c2ccc(OCc3cncc(C(F)(F)F)c3)cc2)n1 [Example I-125]
Puccinia recondita; 4 ppm
  Observed efficacy (%): 13%
Septoria tritici; 4 ppm
  Observed efficacy (%): 23%
Alternaria solani; 0.25 ppm
  Observed efficacy (%): 4%
